According to ChEMBL document CHEMBL1201862, “PubChem BioAssay data set” (2004):
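Exposure lasted 48 hours, with cells grown in 96-well plates and compounds tested at five concentrations. At the GI50, growth is halved.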 The source made the active and inactive calls. Rule as the data show it: active = GI50 up to about 1.1 µM and inactive = higher.

Legend:
Assay in all cases: NCI anticancer screen, dose series, 48 h
[1] = test system: A498
[2] = test system: A549
[3] = test system: CCRF-CEM
[4] = test system: HL-60
[5] = test system: HT-29
[6] = test system: IGROV-1
[7] = test system: K562
[8] = test system: LOX IMVI
[9] = test system: MOLT-4
[10] = test system: OVCAR-4
[11] = test system: OVCAR-8
[12] = test system: SF-295
[13] = test system: SK-MEL-2
[14] = test system: SK-MEL-5
[15] = test system: SNB-19
[16] = test system: SW-620
[17] = test system: U-251
[18] = test system: UACC-62
[19] = test system: UO-31
[20] = test system: OVCAR-5

Measured: GI50

O=Cc1ccccc1CCn1c(=O)c2cc3c(=O)n(CCc4ccccc4C=O)c(=O)c3cc2c1=O
inactive: [1] > 100 µM | [2] > 100 µM | [3] > 100 µM | [4] > 100 µM | [5] > 100 µM | [6] > 100 µM | [7] > 100 µM | [8] > 100 µM | [9] > 100 µM | [10] > 100 µM | [11] > 100 µM | [12] > 100 µM | [13] > 100 µM | [14] > 100 µM | [15] > 100 µM | [16] > 100 µM | [17] > 100 µM | [18] > 100 µM | [19] > 100 µM

O=c1ccc2ccc(CBr)cc2o1
inactive: [1] 16 µM | [2] 15.5 µM | [3] 1.78 µM | [4] 1.76 µM | [5] 2.48 µM | [6] 3.57 µM | [7] 2.18 µM | [8] 1.5 µM | [9] 2.29 µM | [20] 1.73 µM | [11] 2.05 µM | [12] 15.3 µM | [13] 11.4 µM | [14] 2.79 µM | [15] 12.4 µM | [16] 1.72 µM | [17] 1.81 µM | [18] 10.8 µM

COc1cc(C2S/C(=C/c3ccccc3)C(=O)N2c2ccccc2Cl)cc(OC)c1OC (stereo not given)
inactive: [1] 43.4 µM | [2] 37.1 µM | [5] 19.1 µM | [8] 18.7 µM | [9] 41.8 µM | [10] 28.2 µM | [20] 42.5 µM | [11] 19.3 µM | [12] 28.9 µM | [13] 16 µM | [14] 20.7 µM | [15] 35.5 µM | [17] 22.1 µM | [18] 20 µM | [19] 28.5 µM

Cc1cc(O)nc(NN2C(Cl)C(=O)C2c2cccc(Cl)c2)n1 (stereo not given)
inactive: [2] 47.8 µM | [3] 6.49 µM | [4] 16 µM | [5] 23.4 µM | [6] 14 µM | [7] 17.6 µM | [8] 14.4 µM | [9] 13.8 µM | [10] 28.2 µM | [20] 58.2 µM | [11] 31.1 µM | [13] 16.7 µM | [14] 18.4 µM | [15] 27.9 µM | [16] 38 µM | [17] 30.5 µM | [18] 23.1 µM | [19] 24.2 µM
